Measurements published in patent US20250353863A1, “TRICYCLIC SPIROLACTAM COMPOUNDS WITH ANTIMYCOBACTERIAL ACTIVITY” (priority 2022, published 2025).
In brackets after ≈: the same amount, converted by molar mass.

System: Mtb H37Rv-WT
Assay: MIC by resazurin microtiter assay (REMA) against Mtb
Format: cell-based
Details: Mycobacterium tuberculosis, 144 h, REMA, 37° C., 6 days, read-out: MIC (μM) H37Rv-WT

| Structure (SMILES) | MIC [µM] |
| --- | --- |
| CC(C)[C@H]1CO[C@]23CCN(Cc4cc5ccccc5n4C)C[C@H]2CCC(=O)N13 | < 1 |
| CC(C)[C@H]1CO[C@]23CCN(S(=O)(=O)CCc4ccc(C(F)(F)F)cc4)C[C@H]2CCC(=O)N13 [(3S,7aR,11aR)-3-isopropyl-9-[2-[4-(trifluoromethyl)phenyl]ethylsulfonyl]-2,3,6,7,7a,8,10,11-octahydrooxazolo[2,3-j][1,6]naphthyridin-5-one] | < 1 |
| CC(C)[C@H]1CO[C@]23CCN(C(=O)OCCc4ccc(C(F)(F)F)cc4)C[C@H]2CCC(=O)N13 | 1 to 10 (≈ 0.454 to 4.54 µg/mL) |
| CC(C)[C@H]1CO[C@]23CCCN(Cc4ccc(C(F)(F)F)cc4)C[C@H]2CCC(=O)N13 [(4S,9R)-4-isopropyl-11-[[4-(trifluoromethyl)phenyl]methyl]-2-oxa-5,11-diazatricyclo[7,5,0.01,5]tetradecan-6-one] | < 1 |
| CC(C)[C@H]1CO[C@]23CCN(Cc4ccc(O)cc4)C[C@H]2CCC(=O)N13 [(3S,7aR,11aR)-9-[(4-hydroxyphenyl)methyl]-3-isopropyl-2,3,6,7,7a,8,10,11-octahydrooxazolo[2,3-j][1,6]naphthyridin-5-one] | > 10 |
| O=C1CC[C@@H]2CN(Cc3ccccc3)CC[C@@]23OC[C@H](C2CC2)N13 [(3S,7aR,11aR)-9-benzyl-3-cyclopropyl-2,3,6,7,7a,8,10,11-octahydrooxazolo[2,3-j][1,6]naphthyridin-5-one] | > 10 |
| CC(C)[C@H]1CO[C@]23CCN(C(=O)OCc4ccc(C(F)(F)F)cc4)C[C@H]2CCC(=O)N13 [[4-(trifluoromethyl)phenyl]methyl (3S,7aR,11aR)-3-isopropyl-5-oxo-2,3,6,7,7a,8,10,11-octahydrooxazolo[2,3-j][1,6]naphthyridine-9-carboxylate] | 1 to 10 (≈ 0.44 to 4.4 µg/mL) |
| CC(C)[C@H]1CO[C@]23CCN(Cc4ccc(N5CCC(c6ccc(OC(F)(F)F)cc6)CC5)cc4)C[C@H]2CCC(=O)N13 [(3S,7aR,11aR)-3-isopropyl-9-[[4-[4-[4-(trifluoromethoxy)phenyl]-1-piperidyl]phenyl]methyl]-2,3,6,7,7a,8,10,11-octahydrooxazolo[2,3-j][1,6]naphthyridin-5-one] | < 1 |
| CC(C)[C@H]1CO[C@]23CCN(Cc4ccc(C(F)(F)F)cc4)[C@H]2CCC(=O)N13 [(1R,4S,9S)-4-isopropyl-10-[[4-(trifluoromethyl)phenyl]methyl]-2-oxa-5,10-diazatricyclo[7.3.0.01,5]dodecan-6-one] | < 1 |
| CC(C)[C@H]1CO[C@]23CCN(Cc4cc(C5CC5)nc5ccccc45)C[C@H]2CCC(=O)N13 [(3S,7aR,11aR)-9-[(2-cyclopropyl-4-quinolyl)methyl]-3-isopropyl-2,3,6,7,7a,8,10,11-octahydrooxazolo[2,3-j][1,6]naphthyridin-5-one] | < 1 |
| CC(C)[C@H]1CO[C@]23CCN(CC4CCOCC4)C[C@H]2CCC(=O)N13 [(3S,7aR,11aR)-3-isopropyl-9-(tetrahydropyran-4-ylmethyl)-2,3,6,7,7a,8,10,11-octahydrooxazolo[2,3-j][1,6]naphthyridin-5-one] | > 10 |
| O=C1CC[C@@H]2CN(Cc3ccccc3)CC[C@@]23N[C@H]2CCCC[C@@H]2N13 [(1S,6R,11S,16S)-4-benzyl-4,10,17-triazatetracyclo[8.7.0.01,6.011,16] heptadecan-9-one] | > 10 |
| CC(C)[C@H]1CO[C@]23CCN(c4ccc(C(F)(F)F)cc4)C[C@H]2CCC(=O)N13 [(3S,7aR,11aR)-3-isopropyl-9-[4-(trifluoromethyl)phenyl]-2,3,6,7,7a,8,10,11-octahydrooxazolo[2,3-j][1,6]naphthyridin-5-one] | 1 to 10 (≈ 0.382 to 3.82 µg/mL) |
| Cc1ccc(CN2CC[C@]34OC[C@H](C(C)C)N3C(=O)CC[C@@H]4C2)cc1 [(3S,7aR,11aR)-3-isopropyl-9-(p-tolylmethyl)-2,3,6,7,7a,8,10,11-octahydrooxazolo[2,3-j][1,6]naphthyridin-5-one] | 1 to 10 (≈ 0.342 to 3.42 µg/mL) |
| CC(C)[C@H]1CO[C@]23CCN(Cc4ccc(C(F)(F)F)cc4)C[C@H]2OCC(=O)N13 [(1R,4S,9R)-4-isopropyl-11-[[4-(trifluoromethyl)phenyl]methyl]-2,8-dioxa-5,11-diazatricyclo[7.4.0.01,5]tridecan-6-one] | 1 to 10 (≈ 0.398 to 3.98 µg/mL) |
| CC(C)[C@H]1CO[C@]23CCN(CC4CCCCO4)C[C@H]2CCC(=O)N13 (stereo partly drawn) [(3S,7aR,11aR)-3-isopropyl-9-(tetrahydropyran-2-ylmethyl)-2,3,6,7,7a,8,10,11-octahydrooxazolo[2,3-j][1,6]naphthyridin-5-one] | 1 to 10 (≈ 0.336 to 3.36 µg/mL) |

| Structure (SMILES) | MIC [µM] |
| --- | --- |
| CC(C)[C@H]1CO[C@]23CCN(C(=O)C(F)(F)c4ccc(C(F)(F)F)cc4)C[C@H]2CCC(=O)N13 [(3S,7aR,11aR)-9-[2,2-difluoro-2-[4-(trifluoromethyl)phenyl]acetyl]-3-isopropyl-2,3,6,7,7a,8,10,11-octahydrooxazolo[2,3-j][1,6]naphthyridin-5-one] | > 10 |
| CC(C)[C@H]1CO[C@]23CC[C@@H](N(Cc4ccc(C(F)(F)F)cc4)Cc4ccc(C(F)(F)F)cc4)C[C@H]2CCC(=O)N13 | < 1 |
| CC(C)[C@H]1CO[C@]23CCN(Cc4ccc5ncccc5c4)C[C@H]2CCC(=O)N13 [(3S,7aR,11aR)-3-isopropyl-9-(6-quinolylmethyl)-2,3,6,7,7a,8,10,11-octahydrooxazolo[2,3-j][1,6]naphthyridin-5-one] | 1 to 10 (≈ 0.38 to 3.8 µg/mL) |
| CC(C)[C@H]1CO[C@]23CCN(Cc4ccc(C(F)(F)F)cc4)C[C@H]2CCC(=O)N13 [(3S,7aR,11aR)-3-isopropyl-9-[[4-(trifluoromethyl)phenyl]methyl]-2,3,6,7,7a,8,10,11-octahydrooxazolo[2,3-j][1,6]naphthyridin-5-one] | < 1 |
| CC(C)[C@H]1CO[C@]23CC(=O)N(Cc4ccc(C(F)(F)F)cc4)C[C@H]2CCC(=O)N13 [(3S,7aR,11aR)-3-isopropyl-9-[[4-(trifluoromethyl)phenyl]methyl]-3,6,7,7a,8,11-hexahydro-2H-oxazolo[2,3-j][1,6]naphthyridine-5,10-dione] | > 10 |
| CC(C)[C@H]1CO[C@]23CCN(Cc4ccc(N5CCCCC5)cc4)C[C@H]2CCC(=O)N13 [(3S,7aR,11aR)-3-isopropyl-9-[[4-(1-piperidyl)phenyl]methyl]-2,3,6,7,7a,8,10,11-octahydrooxazolo[2,3-j][1,6]naphthyridin-5-one] | 1 to 10 (≈ 0.412 to 4.12 µg/mL) |
| CC(C)[C@H]1CO[C@]23CCN(Cc4ccc(C(F)(F)F)cc4)C[C@H]2C[C@@H](C)C(=O)N13 | < 1 |
| CC(C)[C@H]1CO[C@]23CCN(Cc4nccn4C)C[C@H]2CCC(=O)N13 [(3S,7aR,11aR)-3-isopropyl-9-[(1-methylimidazol-2-yl)methyl]-2,3,6,7,7a,8,10,11-octahydrooxazolo[2,3-j][1,6]naphthyridin-5-one] | 1 to 10 (≈ 0.332 to 3.32 µg/mL) |
| CC(C)[C@H]1CO[C@]23CC[C@H](N(Cc4ccc(C(F)(F)F)cc4)Cc4ccc(C(F)(F)F)cc4)C[C@H]2CCC(=O)N13 | < 1 |
| C=CC[C@H]1C[C@@H]2CN(Cc3ccc(C(F)(F)F)cc3)CC[C@@]23OC[C@H](C(C)C)N3C1=O [(3S,6S,7aR,11aR)-6-allyl-3-isopropyl-9-[[4-(trifluoromethyl)phenyl]methyl]-2,3,6,7,7a,8,10,11-octahydrooxazolo[2,3-j][1,6]naphthyridin-5-one] | > 10 |
| CC[C@@H]1C[C@@H]2CN(Cc3ccc(C(F)(F)F)cc3)CC[C@@]23OC[C@H](C(C)C)N3C1=O [(3S,6R,7aR,11aR)-6-ethyl-3-isopropyl-9-[[4-(trifluoromethyl)phenyl]methyl]-2,3,6,7,7a,8,10,11-octahydrooxazolo[2,3-j][1,6]naphthyridin-5-one] | < 1 |
| CC(C)[C@H]1CO[C@]23CC[C@H](NCc4ccc(C(F)(F)F)cc4)C[C@H]2CCC(=O)N13 | < 1 |
| C=C[C@H]1CO[C@]23CCN(Cc4ccc(C(F)(F)F)cc4)C[C@H]2CCC(=O)N13 | > 10 |
| CC(C)[C@H]1CO[C@]23CCN(Cc4ccc(C(F)(F)F)cc4)C[C@H]2CC(F)(F)C(=O)N13 [(3S,7aR,11aR)-6,6-difluoro-3-isopropyl-9-[[4-(trifluoromethyl)phenyl]methyl]-3,7,7a,8,10,11-hexahydro-2H-oxazolo[2,3-j][1,6]naphthyridin-5-one] | < 1 |
| CC(C)[C@H]1CO[C@]23CCN(CC4CCCO4)C[C@H]2CCC(=O)N13 (stereo partly drawn) [(3S,7aR,11aR)-3-isopropyl-9-(tetrahydrofuran-2-ylmethyl)-2,3,6,7,7a,8,10,11-octahydrooxazolo[2,3-j][1,6]naphthyridin-5-one] | > 10 |
| O=C1CC[C@@H]2CN(Cc3ccc(C(F)(F)F)cc3)CC[C@@]23OC[C@H](C(F)(F)F)N13 [(3R,7aR,11aR)-3-(trifluoromethyl)-9-[[4-(trifluoromethyl)phenyl]methyl]-2,3,6,7,7a,8,10,11-octahydrooxazolo[2,3-j][1,6]naphthyridin-5-one] | > 10 |

Same assay, conditions: Mycobacterium tuberculosis, 144 h, read-out: MIC (μM) H37Rv-WT

| Structure (SMILES) | MIC [µM] |
| --- | --- |
| CC(C)[C@H]1CO[C@]23CCN(Cc4ccncc4)C[C@H]2CCC(=O)N13 [(3S,7aR,11aR)-3-isopropyl-9-(4-pyridylmethyl)-2,3,6,7,7a,8,10,11-octahydrooxazolo[2,3-j][1,6]naphthyridin-5-one] | > 10 |

Same assay, conditions: Mycobacterium tuberculosis, REMA, read-out: MIC M. tuberculosis

| Structure (SMILES) | MIC [µM] |
| --- | --- |
| CC(C)[C@H]1CO[C@]23CCN(Cc4cc(C(F)(F)F)nc5ccccc45)C[C@H]2CCC(=O)N13 [Example 25, (3S,7aR,11aR)-3-isopropyl-9-[[2-(trifluoromethyl)-4-quinolyl]methyl]-2,3,6,7,7a,8,10,11-octahydrooxazolo[2,3-j][1,6]naphthyridin-5-one] | < 1 |
| CC(C)[C@H]1CO[C@]23CCN(Cc4ccc(C(F)(F)F)cc4C(F)(F)F)C[C@H]2CCC(=O)N13 [Example 10, (3S,7aR,11aR)-9-[[2,4-bis(trifluoromethyl)phenyl]methyl]-3-isopropyl-2,3,6,7,7a,8,10,11-octahydrooxazolo[2,3-j][1,6]naphthyridin-5-one] | < 1 |
| CC(C)[C@H]1CO[C@]23CCN(Cc4cc(C5CC5)nc5ccccc45)C[C@H]2CCC(=O)N13 [Example 24, (3S,7aR,11aR)-9-[(2-cyclopropyl-4-quinolyl)methyl]-3-isopropyl-2,3,6,7,7a,8,10,11-octahydrooxazolo[2,3-j][1,6]naphthyridin-5-one] | < 1 |
